Source: paper PMC9011219 (Annals of Translational Medicine, 2022)

Key:
BuChE = BuChE (Equus caballus, UniProt P81908); assay: Ellman assay; assay type: biochemical
AChE = AChE (Electrophorus electricus, UniProt O42275); assay: Ellman assay; assay type: biochemical
Sequence of AChE (O42275 24-633): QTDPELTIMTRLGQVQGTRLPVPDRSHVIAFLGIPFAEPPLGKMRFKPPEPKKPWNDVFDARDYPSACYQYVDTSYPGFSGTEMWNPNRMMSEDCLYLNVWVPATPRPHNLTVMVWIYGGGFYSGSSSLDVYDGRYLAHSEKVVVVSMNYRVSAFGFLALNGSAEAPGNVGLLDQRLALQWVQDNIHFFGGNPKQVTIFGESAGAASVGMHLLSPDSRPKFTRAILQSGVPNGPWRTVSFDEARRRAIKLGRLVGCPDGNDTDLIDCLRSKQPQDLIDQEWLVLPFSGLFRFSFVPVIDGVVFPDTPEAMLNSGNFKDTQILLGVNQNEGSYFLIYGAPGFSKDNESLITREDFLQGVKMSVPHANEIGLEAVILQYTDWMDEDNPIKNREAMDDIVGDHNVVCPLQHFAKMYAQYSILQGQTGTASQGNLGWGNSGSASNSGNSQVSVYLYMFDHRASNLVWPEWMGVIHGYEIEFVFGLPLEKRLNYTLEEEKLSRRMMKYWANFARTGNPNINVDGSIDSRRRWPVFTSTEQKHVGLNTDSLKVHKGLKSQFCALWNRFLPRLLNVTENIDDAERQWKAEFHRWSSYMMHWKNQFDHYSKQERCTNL

Sequence of BuChE (P81908 whole entry): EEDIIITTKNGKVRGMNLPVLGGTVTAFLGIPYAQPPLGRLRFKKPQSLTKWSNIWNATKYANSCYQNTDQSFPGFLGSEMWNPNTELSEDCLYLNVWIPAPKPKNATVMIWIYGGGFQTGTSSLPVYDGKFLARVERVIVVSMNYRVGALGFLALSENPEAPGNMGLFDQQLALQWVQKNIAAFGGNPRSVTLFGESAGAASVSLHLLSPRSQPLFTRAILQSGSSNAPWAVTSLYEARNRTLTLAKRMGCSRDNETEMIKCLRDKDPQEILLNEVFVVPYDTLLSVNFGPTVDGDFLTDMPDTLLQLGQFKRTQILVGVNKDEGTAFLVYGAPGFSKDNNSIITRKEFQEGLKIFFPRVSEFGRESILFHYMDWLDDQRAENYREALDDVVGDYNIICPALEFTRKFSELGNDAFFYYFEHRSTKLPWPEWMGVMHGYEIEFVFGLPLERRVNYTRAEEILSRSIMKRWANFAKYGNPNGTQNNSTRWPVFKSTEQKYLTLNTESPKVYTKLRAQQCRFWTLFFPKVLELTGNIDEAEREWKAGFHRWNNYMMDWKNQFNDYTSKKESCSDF

| Compound | IC50 (BuChE) [µM] | IC50 (AChE) [µM] |
| --- | --- | --- |
| O=C(NCCc1c[nH]c2ccccc12)Nc1cccc2cccnc12 [a1, 1-(2-(1H-indol-3-yl)ethyl)-3-(quinolin-8-yl) urea] | 10.3 ± 0.7 |  |
| COc1ccc2[nH]cc(CCNC(=O)Nc3cccc4cccnc34)c2c1 [a2, 1-(2-(5-methoxy-1H-indol-3-yl)ethyl)-3-(quinolin-8-yl) urea] |  | 29.2 ± 1.2 |
| O=C(NCCc1c[nH]c2ccc(O)cc12)Nc1cccc2cccnc12 [a3, 1-(2-(5-hydroxy-1H-indol-3-yl)ethyl)-3-(quinolin-8-yl) urea] | 8.78 ± 0.3 | 36.3 ± 0.7 |
| CN(C)C(=O)Oc1ccc2[nH]cc(CCNC(=O)Nc3cccc4cccnc34)c2c1 [a4, 3-(2-(3-(quinolin-8-yl)ureido)ethyl)-1H-indol-5-yl dimethylcarbamate] | 3.3 ± 0.2 | 35.6 ± 0.6 |
| CCN(C)C(=O)Oc1ccc2[nH]cc(CCNC(=O)Nc3cccc4cccnc34)c2c1 [a5, 3-(2-(3-(quinolin-8-yl)ureido)ethyl)-1H-indol-5-yl ethyl (methyl) carbamate] | 2.6 ± 0.4 |  |
| O=C(CNc1cccc2cccnc12)NCCc1c[nH]c2ccccc12 [b1, N-(2-(1H-indol-3-yl)ethyl)-2-(quinolin-8-ylamino) acetamide] |  | 11.2 ± 0.4 |
| COc1ccc2[nH]cc(CCNC(=O)CNc3cccc4cccnc34)c2c1 [b2, N-(2-(5-methoxy-1H-indol-3-yl)ethyl)-2-(quinolin-8-ylamino) acetamide] |  | 13 ± 0.2 |
| O=C(CNc1cccc2cccnc12)NCCc1c[nH]c2ccc(O)cc12 [b3, N-(2-(5-hydroxy-1H-indol-3-yl)ethyl)-2-(quinolin-8-ylamino) acetamide] |  | 4.34 ± 0.1 |
| CN(C)C(=O)Oc1ccc2[nH]cc(CCNC(=O)CNc3cccc4cccnc34)c2c1 [b4, 3-(2-(2-(quinolin-8-ylamino)acetamido)ethyl)-1H-indol-5-yl dimethylcarbamate] | 0.9 ± 0.1 | 11.2 ± 0.3 |
| CCN(C)C(=O)Oc1ccc2[nH]cc(CCNC(=O)CNc3cccc4cccnc34)c2c1 [b5, 3-(2-(2-(quinolin-8-ylamino)acetamido)ethyl)-1H-indol-5-yl ethyl (methyl) carbamate] | 0.8 ± 0.1 | 13.7 ± 0.6 |
| c1cnc2c(NCCc3c[nH]c4ccccc34)cccc2c1 [c1, N-(2-(1H-indol-3-yl)ethyl) quinolin-8-amine] | 13.5 ± 0.4 | 32.7 ± 1.4 |
| COc1ccc2[nH]cc(CCNc3cccc4cccnc34)c2c1 [c2, N-(2-(5-methoxy-1H-indol-3-yl)ethyl) quinolin-8-amine] | 4.5 ± 0.3 |  |
| Oc1ccc2[nH]cc(CCNc3cccc4cccnc34)c2c1 [c3, 3-(2-(quinolin-8-ylamino)ethyl)-1H-indol-5-ol] | 4.3 ± 0.4 |  |
| CN(C)C(=O)Oc1ccc2[nH]cc(CCNc3cccc4cccnc34)c2c1 [c4, 3-(2-(quinolin-8-ylamino)ethyl)-1H-indol-5-yl dimethylcarbamate] | 0.9 ± 0.1 |  |
| CCN(C)C(=O)Oc1ccc2[nH]cc(CCNc3cccc4cccnc34)c2c1 [c5, 3-(2-(quinolin-8-ylamino)ethyl)-1H-indol-5-yl ethyl (methyl) carbamate] | 1.1 ± 0.1 | 25.1 ± 1.7 |
